Measurements: PubChem BioAssay AID1259338 (Broad Institute, 2017)
Calls of active or inactive are those of the source.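 Rule for the calls: active = compounds lowering the signal with a fitted AC50 at or below a set concentration limit; inconclusive = flat curve with 30 to 70% inhibition, or a poor fit; inactive = the rest.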

Biological target: Caspase recruitment domain-containing protein 9 (Homo sapiens) + E3 ubiquitin-protein ligase TRIM62 (Homo sapiens) (UniProt Q9H257+Q9BVG3)
Assay: CARD9/TRIM62 protein interaction inhibitors – cell lysate, HEK293FT lysates, Luminex bead readout, dose response (AID 1259338); for activity change, negative = inhibition: reference of the scale not given here
Conditions: Luminex bead PPI, MFI

Caspase recruitment domain-containing protein 9 (Homo sapiens) + E3 ubiquitin-protein ligase TRIM62 (Homo sapiens), sequence (Q9BVG3 whole entry, looked up, the tested form may be a part): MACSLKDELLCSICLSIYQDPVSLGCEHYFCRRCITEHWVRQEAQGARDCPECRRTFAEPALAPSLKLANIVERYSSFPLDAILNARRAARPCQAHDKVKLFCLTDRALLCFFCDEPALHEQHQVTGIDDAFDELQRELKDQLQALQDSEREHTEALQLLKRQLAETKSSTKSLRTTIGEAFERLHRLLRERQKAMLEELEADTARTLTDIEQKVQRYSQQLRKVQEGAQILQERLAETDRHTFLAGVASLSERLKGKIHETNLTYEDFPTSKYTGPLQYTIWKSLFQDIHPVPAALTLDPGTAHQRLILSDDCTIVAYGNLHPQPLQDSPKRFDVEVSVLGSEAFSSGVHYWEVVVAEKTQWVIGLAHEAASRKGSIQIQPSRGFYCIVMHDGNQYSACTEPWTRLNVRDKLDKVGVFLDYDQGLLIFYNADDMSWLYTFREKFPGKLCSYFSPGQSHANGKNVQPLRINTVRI
Caspase recruitment domain-containing protein 9 (Homo sapiens) + E3 ubiquitin-protein ligase TRIM62 (Homo sapiens), sequence (Q9H257 whole entry, looked up, the tested form may be a part): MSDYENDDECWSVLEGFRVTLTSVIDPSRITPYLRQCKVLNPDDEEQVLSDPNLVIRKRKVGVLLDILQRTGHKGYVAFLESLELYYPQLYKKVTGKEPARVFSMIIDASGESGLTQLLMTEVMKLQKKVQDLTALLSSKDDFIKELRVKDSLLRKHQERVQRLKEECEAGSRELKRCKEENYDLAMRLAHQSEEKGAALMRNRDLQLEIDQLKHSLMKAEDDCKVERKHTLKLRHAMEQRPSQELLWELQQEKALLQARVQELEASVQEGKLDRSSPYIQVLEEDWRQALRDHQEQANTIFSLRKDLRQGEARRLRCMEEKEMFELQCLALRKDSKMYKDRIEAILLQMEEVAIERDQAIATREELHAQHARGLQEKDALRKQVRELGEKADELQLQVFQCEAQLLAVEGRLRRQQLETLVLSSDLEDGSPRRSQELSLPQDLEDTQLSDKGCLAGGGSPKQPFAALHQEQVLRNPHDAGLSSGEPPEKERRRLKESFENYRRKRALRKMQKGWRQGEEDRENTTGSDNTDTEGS

Row | SMILES | AC50 | activity change, negative = inhibition (at 80 µM (top of the series)) | other results
1 | CCOc1cc2c(C#N)c(N3CCNCC3)nc(N)c2c(N)n1 | – | inactive | –
2 | O=C(COC(=O)c1ccc(F)cc1F)Nc1ncccn1 | 38.8 µM | – | –
3 | COc1ccc(F)c(CN2C[C@H]3CC[C@@H]2CN(Cc2cscn2)C3)c1 | – | inactive | –
4 | Cc1ccc(C)n1Nc1nc(O)cs1 | – | – | activity change, negative = inhibition (at 38 µM (top of the series)): inactive
5 | COCC(=O)N1CCCC2(CCN(CCN3CCCC3)C2=O)C1 (centres undefined) | > 160 µM (inactive) | – | –
6 | Cc1ccc(C(=O)Nc2ccc(N3CCC(C(N)=O)(N4CCCCC4)CC3)c(C(=O)O)c2)cc1 | 24.3 µM | – | –
7 | Nc1cc2c(cc1O)CCCC2 | – | inactive | –
8 | Cn1cccc1CNCCCSc1ncccn1 | – | inactive | –
9 | Cc1cnc(C)c(N2CCN(C(=O)[C@H]3CC[C@@H](N)C3)CC2)n1 | – | inactive | –
10 | On1c(-c2ccco2)nc2c1CCc1nonc1-2 | – | inactive | –
11 | C[C@H](CO)N1C[C@H](C)[C@H](CN(C)C(=O)C2CCCCC2)OCCCC[C@H](C)Oc2ccc(NS(=O)(=O)c3cccs3)cc2C1=O | – | inactive | –
12 | Cc1ncnc(N2CCC(c3nccn3Cc3cccnc3)CC2)c1C | > 160 µM (inactive) | – | –
13 | C[C@H](CO)N1C[C@H](C)[C@@H](CN(C)CC2CCCCC2)OCCCC[C@H](C)Oc2ccc(NS(=O)(=O)c3cccs3)cc2C1=O | – | inactive | –
14 | C[C@H](CO)N1C[C@H](C)[C@@H](CN(C)CC2CCCCC2)OCCCC[C@H](C)Oc2ccc(NS(=O)(=O)c3ccccc3)cc2C1=O | – | inactive | –
15 | C[C@H](CO)N1C[C@H](C)[C@@H](CN(C)C(=O)C2CCCCC2)OCCCC[C@H](C)Oc2ccc(NS(=O)(=O)c3cccs3)cc2C1=O | – | inactive | –
16 | CCOC(=O)C1CCN(C(=O)CN(Cc2ccccc2)S(C)(=O)=O)CC1 | > 76 µM (inactive) | – | –
17 | O=C(CN1CCN(c2ccccc2O)CC1)NC(=O)NC1CCCC1 | – | inactive | –
18 | CCC12CCCN3CCc4c(n(c5ccccc45)C(O)(C(=O)OC)C1)C32 (centres undefined) | – | – | activity change, negative = inhibition (at 38 µM (top of the series)): inactive
19 | CCCc1oc(C(=O)O)cc1CN | – | inactive | –
20 | CCCN1CCCn2nc(CNC(=O)[C@@H](N)Cc3ccc(O)cc3)cc2C1 | 27.8 µM | – | –
21 | CC1CCN(c2nc(-c3ccco3)c3c(c2C#N)CC(C)(C)OC3)CC1 | – | inactive | –
22 | CCOC(=O)c1[nH]c(Cc2[nH]c(C(=O)OCC)c(C)c2C)c(C)c1C | – | inactive | –
23 | Cc1noc(C)c1S(=O)(=O)Nc1ccc2c(c1)C(=O)N([C@H](C)CO)C[C@H](C)[C@@H](CN(C)C(=O)C1CCCCC1)OCCCC[C@H](C)O2 | > 160 µM (inactive) | – | –
24 | CCCC(=O)NCc1ccc2c(c1)cc(C)n2C | – | inactive | –
25 | O=C(CCCN1C(=O)NC2(CCCC2)C1=O)Nc1ccc(F)cc1 | – | inactive | –
26 | CCSCCNC(=O)c1cncc(Br)c1 | – | inactive | –
27 | CCCN1CCc2nc(SCc3nc(-c4ccc(OC)cc4OC)oc3C)[nH]c(=O)c2C1 | – | inactive | –
28 | COc1ccc(S(=O)(=O)Nc2ccc3c(c2)C(=O)N([C@H](C)CO)C[C@H](C)[C@@H](CN(C)CC2CCCCC2)OCCCC[C@H](C)O3)cc1 | > 160 µM (inactive) | – | –
29 | CC(=O)Nc1ccc2nc3c(=O)n(C)c(=O)n(C)c3nc2c1 | – | inactive | –

Further lines, with some results ahead:

Row | AC50 | activity change, negative = inhibition (at 80 µM (top of the series)) | SMILES | other results
30 | > 160 µM (inactive) | – | COc1ccc(S(=O)(=O)c2ccccc2)cc1NS(=O)(=O)c1cccc(C(=O)O)c1 | –
31 | – | inactive | O=C(O)CCc1ccc(-c2cccs2)n1NC(=O)c1ccco1 | –
32 | 80.2 µM | – | O=[N+]([O-])c1cccc(-c2nnc3ccc4ccccc4n23)c1 | –
33 | – | inactive | CN1C(=O)C(c2ccccc2[N+](=O)[O-])C(=O)c2ccccc21 (centres undefined) | –
34 | – | inactive | N#Cc1c2ccc(OCC(=O)NCc3ccco3)cc2n2ccccc12 | –
35 | 68.9 µM | – | O=C(O)C1Oc2cc3ccccc3cc2O1 | –
36 | – | inactive | CCC1c2ccc(C)n2CCN1C(=O)Nc1ccccc1C(=O)OC (centres undefined) | –
37 | 23.5 µM | – | OCc1ccc(O)c2ncccc12 | –
38 | – | inactive | O=c1oc(/C=C/c2ccc([N+](=O)[O-])s2)nc2ccccc12 | –
39 | – | inactive | O=S(=O)(c1ccc(F)cc1)N1CN(Cc2ccco2)c2nc3ccccc3nc21 | –
40 | 77.9 µM | – | O=C(Nc1nc(-c2ccccn2)cs1)c1cccc(-n2cnnn2)c1 | –
41 | – | inactive | O=C(CCc1nc(-c2ccccc2)no1)NCC1CNCCOC1 (centres undefined) | –
42 | – | inactive | C(=N\n1cnnc1SCc1ccccc1)/c1ccco1 | –
43 | 22.8 µM | – | O=S(=O)(c1ccccc1)N1CC2CN(Cc3ccc(O)cc3)C2C1 (centres undefined) | –
44 | > 160 µM (inactive) | – | Nc1ccc(-c2cccc(CN3CCCC3)c2)cc1 | –
45 | > 160 µM (inactive) | – | O=C(Nc1nccs1)c1cc(-c2ccccn2)nc2c(Cl)cccc12 | –
46 | – | inactive | Cc1ccc(C2CC(=O)C3=C(C2)Nc2ccccc2NC3c2cccnc2)cc1 (centres undefined) | –
47 | – | inactive | N#Cc1c(-c2ccco2)cc(-c2ccccn2)nc1N | –
48 | – | inactive | O=C1CC(c2ccco2)Cc2nc(N3CCc4ccccc4C3)ncc21 (centres undefined) | –
49 | 50.9 µM | – | Cc1ccc(N2NC(c3ccc(Br)cc3)=CCC2=O)cc1 | –

Row | AC50 | activity change, negative = inhibition (at 80 µM (top of the series)) | SMILES | other results
50 | > 160 µM (inactive) | – | O=C(NCc1ccco1)c1c2c(nc3ccccc13)CCC2 | –
51 | 41.8 µM | – | O=C(NCCCN1CCOCC1)c1cc(-c2ccco2)nc2ccccc12 | –
52 | – | inactive | O=C(Nc1nc(-c2ccco2)c(-c2ccco2)s1)c1ccc(F)cc1F | –
53 | – | inactive | O=C(Nc1ccc2oc(-c3cccnc3)nc2c1)c1ccc2c(c1)OCCO2 | –
54 | 75 µM | – | Cc1ccc(-c2cc(C(=O)NCc3ccco3)c3ccccc3n2)o1 | –
55 | 78.2 µM | – | COc1ccc(NC(=O)CN(C)C(=O)c2cc(-c3ccco3)nc3ccccc23)cc1 | –
56 | > 160 µM (inactive) | – | NC(=O)c1ccc(CN2C(=O)C3(CCNCC3)Nc3ccccc32)cc1 | –
57 | – | inactive | Cc1sc2ncnc(SCc3ccco3)c2c1C | –
58 | – | inactive | Nc1ccccc1Sc1nccc(C(F)(F)F)n1 | –
59 | – | inactive | O=C(COC(=O)c1cc(-c2cccs2)nc2ccccc12)NCc1ccco1 | –
60 | 42.1 µM | – | Cc1ccc(-c2nnc(-c3nc(Nc4nc5ccccc5s4)c4ccccc4n3)o2)cc1 | –
61 | – | inactive | O=C1CS/C(=N\N=C\c2ccco2)N1c1ccccc1 | –
62 | – | inactive | Cc1cccc(NC(=O)Cc2coc3ccc4ccccc4c23)n1 | –
63 | – | inactive | c1coc(-c2cn3ccc4ccccc4c3n2)c1 | –
64 | – | inactive | O=C(Nc1ccc2c(c1)nc1n2CCN(C2CCCCC2)C1)c1ccco1 | –
65 | – | inactive | Cc1occc1C(=O)NCc1cccc(CNC(=O)c2ccoc2C)c1 | –
66 | – | inactive | COc1ccc(Nc2nc(-c3nnc(-c4ccc(F)cc4)o3)nc3ccccc23)cc1Cl | –
67 | – | inactive | O=C(COC(=O)c1ccccc1Oc1ccccc1)NCc1ccco1 | –
68 | – | inactive | O=C(Nc1nc(-c2nc3ccccc3s2)cs1)c1ccco1 | –
69 | – | inactive | CCc1cc2c(=O)n(Cc3ccco3)c(SC)nc2s1 | –
